Like-named read-outs stand apart in the source and are kept apart here.
Key:
[1] = test system: OV2008 human cervical cancer cells; test: MTT cell viability assay, OV2008; type: cell-based; conditions: MTT test, 72 h; read-out: IC50 (µM) ± S.D. OV2008
Procedure: (§1) The in vitro cytotoxicity of the Pt-pyrophosphato complexes (1, 2, 3, and 4) was evaluated on a panel of human cancer cell lines and compared to that of cisplatin and oxaliplatin. Cell lines representative of colon (HCT-116), prostate (PC3), breast (MDA-MB231), and […] (OV2008) carcinomas were included.
(§2) The number of living cells was evaluated by the 3-(4,5-dimethylthiazol-2-yl)-2,5-diphenyltetrazolium bromide (MTT) assay. Briefly, HCT116 human colon cancer cells, PC3 human prostate cancer cells, OV2008 human ovarian cancer cells, and MDA MB 231 human breast cancer cells were plated in 96-well plates at a density of ~5000 cells/well. After one day of incubation at 37 °C in a humid atmosphere with 5% CO2, the culture medium was replaced with 100 µL of fresh medium (control cells) or medium containing different concentrations of the test compounds in the range 1.56–100 µM. Untreated cells were used as positive controls. After the incubation period of 72 h, 10 µL of a 0.5% (w/v) MTT/PBS solution was added to each well and the incubation was prolonged for a further 2 h. After this period, the medium was removed and replaced with 100 µL of DMSO. The absorbance of each well was measured by a microplate reader (Wallac Victor3, 1420 Multilabel Counter, Perkin-Elmer, Singapore). Each compound concentration was tested in triplicate, and results were presented as percentage of the control value. IC50 values were calculated using non-linear regression in GraphPad Prism 5.01 (San Diego, CA, USA). […]
(§3) Table S1. In vitro cytotoxicitya […]
(§4) aCells (3–5·10^3 cells […]) were treated for 72 h with increasing concentrations of the tested compounds. Cytotoxicity was assessed by the MTT test. IC50 values were calculated by the four parameter logistic model (p < 0.05). S.D. = standard deviation. OXP = oxaliplatin, CDDP = cisplatin.

[2] = test system: MDA MB 231 human breast cancer cells; test: MTT cell viability assay, MDA MB 231; type: cell-based; conditions: MTT test, 72 h; read-out: IC50 (µM) ± S.D. MDAMB231
Procedure: as §1, §2, §3, §4

[3] = test system: HCT116 human colon cancer cells; test: MTT cell viability assay, HCT116; type: cell-based; conditions: MTT test, 72 h; read-out: IC50 (µM) ± S.D. HCT116
Procedure: as §1, §2, §3, §4

[4] = test system: PC3 human prostate cancer cells; test: MTT cell viability assay, PC3; type: cell-based; conditions: MTT test, 72 h; read-out: IC50 (µM) ± S.D. PC3
Procedure: as §1, §2, §3, §4

[5] = test system: panel of four human cancer cell lines; test: MTT cytotoxicity, average over the four cell lines; type: cell-based; conditions: average over HCT116, PC3, OV2008, MDAMB231; MTT test, 72 h; read-out: IC50 (µM) ± S.D. Average
Procedure: as §1
From this point of view, oxaliplatin represents a better reference compound, with the bidentate oxalato ligand being more similar to the bidentate pyrophosphato ligand.
as §2, §3, §4

[6] = cited from earlier work
[7] = cited from earlier work; remark: listed apart in the source
HCT116 cells = test: Annexin V/PI apoptosis assay by flow cytometry; type: cell-based, human
Procedure: In order to obtain information on tumor cells’ death, the Annexin V/propidium iodide (PI) assay was used in flow cytometry analyses. Annexin V provides a very sensitive method for detecting cellular apoptosis, while PI is commonly used to detect necrotic or late apoptotic cells (when positive to Annexin too). The FITC Annexin V staining was carried out after 24 and 48 h of incubation of HCT116 cells with the Pt-pyrophosphato complexes (1–4) or oxaliplatin/cisplatin (used as reference compounds) at the IC50 concentrations (Supplementary Materials, Table S1). The two-dimensional dot plots can be divided into four quadrants, corresponding to: (i) viable cells, which are negative to both probes (lower left quadrant; PI/FITC −/−), (ii) early apoptotic cells, which are PI-negative and Annexin V-positive (lower right quadrant; PI/FITC −/+), (iii) late apoptotic cells, which are Annexin- and PI-positive (upper right quadrant; PI/FITC +/+), and (iv) necrotic cells, which are PI-positive and Annexin-negative (upper left quadrant; PI/FITC +/−).
The Annexin V/PI assay was conducted as previously described in order to investigate the mechanism of cell death induced by the various compounds on HCT116 cells. […]

[8] = Stability in acidic environment by 31P NMR (pH* 6.5); type: physicochemical; conditions: D2O, HEPES buffer 50 mM, pH* 6.5, 120 mM NaCl, 37 °C
Procedure: To simulate the acidic environment surrounding cancer tissues, the stability of 1 and 2 was also investigated at pH* = 6.5 and 37 °C by ^31P NMR spectroscopy.
(§5) The stability of compounds 1 and 2 at 37 °C in buffered solutions was assessed by ^31P NMR spectroscopy. Each compound (~2 mg) was dissolved in 0.8 mL of D2O containing 50 mM 4-(2-hydroxyethyl)-1-piperazineethanesulfonic acid) (HEPES) buffer (pH* = 7.4 or pH* = 6.5) and 120 mM NaCl. The resulting solutions were transferred into NMR tubes and maintained at 37 °C. ^31P NMR spectra were recorded from time to time over a period of one month.

[9] = Stability in physiological conditions by 31P NMR (pH 7.4); type: physicochemical; conditions: D2O, HEPES buffer 50 mM, pH 7.4, 120 mM NaCl, 37 °C
Procedure: To investigate the stability of 1 and 2 in physiological-like conditions, their solutions in D2O containing HEPES buffer (50 mM, pH = 7.4) and NaCl (120 mM) were monitored at 37 °C by ^31P NMR spectroscopy. […] However, overall, also compound 2 can be considered stable for the time necessary to perform the in vitro cytotoxicity tests (72 h, see following section).
as §5

[10] = 31P NMR chemical shift/pH titration, acidity constants; type: physicochemical; conditions: D2O, 31P NMR titration; for pKa1 (first inflection point, pH*): first deprotonation step; for pKa2 (second inflection point, pH*): second deprotonation of coordinated pyrophosphate
Procedure: The pH titration of complexes 1 and 2 was carried on by recording ^31P NMR spectra at different pH* values (Figure 5).
Acidity constants for complexes 1 and 2 were determined by ^31P NMR chemical shift/pH titrations. Either compound 1 or 2 (0.0047 mmol) was dissolved in 0.550 mL of D2O and transferred into an NMR tube. The pH* of the sample was adjusted to the required value by addition of DClO4 (10, 1.0, 0.5, 0.1, or 0.05 M) or NaOD (1.0, 0.5, 0.1, or 0.05 M) solutions, and the pH* value was measured by using a 3 mm diameter electrode for NMR tubes. No control of the ionic strength was performed. The pH titration curves were fitted to the Henderson−Hasselbalch equation using the program KaleidaGraph (version 3.5, Synergy Software, Reading, PA, USA).

[11] = free pyrophosphate, cited from earlier work

Compound | IC50 [1] [µM] | IC50 [2] [µM] | IC50 [3] [µM] | IC50 [4] [µM] | IC50 [5] [µM] | stability in physiological conditions [6] | pKa1 [7] | pKa2 [7] | % viable cells (lower left quadrant, PI-/Annexin V-) (HCT116 cells) [%] | time at which a small 31P NMR signal of free pyrophosphate is first observed [8] [h] | time at which a small 31P NMR signal of free pyrophosphate is first observed [9] [h] | pKa1 (first inflection point, pH*) [10] | pKa2 (second inflection point, pH*) [10] | pKa1 ([11]; tetrabasic acid) | pKa2 [11] | pKa3 [11] | pKa4 [11]
[NH2][Pt]([NH2])([Cl])[Cl] [CDDP, cisplatin, reference compound] | 4 ± 1 | 2 ± 1 | 9 ± 2 | 9 ± 3 | 6 | – | – | – | – | – | – | – | – | – | – | – | –
N[C@@H]1CCCC[C@H]1N.O=P([O-])(O)OP(=O)([O-])O.[Pt+2] [Compound 3, [Pt(dihydrogenpyrophosphato)(1R,2R-DACH)], reference compound] | 29 ± 5 | 91 ± 5 | 19 ± 4 | 100 ± 8 | 60 ± 8 | quite stable | 2.06 | 4.40 | 84.912 | – | – | – | – | – | – | – | –
O=C1[O][Pt]2([NH][C@@H]3CCCC[C@H]3[NH]2)[O]C1=O [OXP, oxaliplatin] | 54 ± 4 | 93 ± 6 | 72 | 100 ± 5 | 80 | – | – | – | – | – | – | – | – | – | – | – | –
NC1CC=CCC1N.O=P1(O)[O][Pt][O]P(=O)(O)O1 (racemic) [Compound 2, [Pt(dihydrogenpyrophosphato)(1,2-DACHEX)]] | 30 ± 3 | 39 ± 4 | 20 ± 2 | 100 ± 6 | 47 ± 6 | – | – | – | – | 96 | 120 | 2.02 | 4.23 | – | – | – | –
O=P(O)(O)OP(=O)(O)O [Pyrophosphate] | – | – | – | – | – | – | – | – | – | – | – | – | – | 0.85 | 1.49 | 5.77 | 8.22
O=P1([O-])OP(=O)([O-])[O][Pt]2([NH]C3CCCC(C3)[NH]2)[O]1.[Na+].[Na+] (stereo not drawn) [Compound 1, Na2[Pt(pyrophosphato)(cis-1,3-DACH)]] | 15 ± 2 | 26 ± 3 | 21 ± 2 | 29 | 23 | – | – | – | – | 168 | 672 | 2.28 | 4.55 | – | – | – | –
O=P1(O)OP(=O)(O)[O][Pt]2([NH]C3CCC(CC3)[NH]2)[O]1 (stereo not drawn) [Compound 4, [Pt(dihydrogenpyrophosphato)(cis-1,4-DACH)]] | 46 ± 5 | 100 ± 7 | 44 ± 3 | 100 ± 5 | 72 ± 7 | quite stable | 2.03 | 4.47 | – | – | – | – | – | – | – | – | –

— article PMC8200237, “New Oxaliplatin-Pyrophosphato Analogs with Improved In Vitro Cytotoxicity” (Molecules, 2021)
